What all share (assay type): cell-based, Streptomyces coelicolor
Assay [1] deals with S. coelicolor LAG2 (ddl suppressor mutant). The experiment in a line: MIC of vancomycin on MM agar plates with added D-Ala or L-Ala. The settings on record: Streptomyces coelicolor. On the procedure: VanS is the sensory kinase of a two-component system formed with VanR, and it has been shown previously that certain mutations in vanS will constitutively upregulate the vancomycin resistance cluster, explaining the viability of strain LAG2 in the absence of vancomycin.
(§1) Escherichia coli strains JM109 (Sambrook et al., 1989) and ET12567 (Kieser et al., 2000) were used for routine cloning procedures and for extracting non-methylated DNA, respectively. Cells of E. coli were grown in Luria-Berani broth (LB) at 37° C. Streptomyces coelicolor A3(2) M145 was the parent of all mutants described in this work. All media and routine Streptomyces techniques were carried out as described (Kieser et al., 2000). SFM (soy flour mannitol) agar plates were used for propagating S. coelicolor strains and to prepare spore suspensions. For liquid-grown cultures, S. coelicolor mycelia were grown in normal minimal media with phosphate (NMMP) supplemented with 1% (w/v) mannitol as the sole carbon source. The MIC of vancomycin against S. coelicolor M145 and its mutant derivatives were determined by growth on minimal media (MM) agar plates supplemented with 1% mannitol as the sole carbon source, and 0, 2, 4, 8, 16, 32, 64, 128, 256 or 512 μg/ml vancomycin, in combination with 0, 1, 5, 10 or 50 mM of D-Ala or L-Ala. The vanX deletion mutants have been tested with 1, 5, 10, 50 and 100 μM D-Ala and L-Ala.

The subject of assay [2] is S. coelicolor M145 ΔvanX (LAG3). The experiment in a line: MIC of vancomycin on MM agar plates with added D-Ala. As to conditions: Streptomyces coelicolor.
Text: VanX effectively eradicates the D-Ala-D-Ala dipeptide, thereby counteracting the accumulation of wild-type precursors and supporting vancomycin resistance (Lessard and Walsh, 1999; Tan et al., 2002). Therefore, a vanX null mutant was created using a similar strategy as for ddl, replacing the coding region of vanX by the apramycin resistance cassette aacC4. The mutant was created in both the parental strain S. coelicolor M145 and in its ddl suppressor mutant LAG2, generating LAG3 (M145 ΔvanX) and LAG4 (M145 Δddl ΔvanX vanS::IS466A), respectively.
LAG4 produced 20% wt precursors prior to the addition of D-Ala.
as §1

Assay [3] deals with S. coelicolor M145. Description: MIC of vancomycin on MM agar plates with added D-Ala or L-Ala. As to conditions: for MIC: Streptomyces coelicolor. As for the experimental part: The naturally vancomycin-resistant model organism S. coelicolor M145 was used as the initial test system. The strain was grown on solid minimal medium (MM) agar plates with increasing amounts of D-Ala and vancomycin. D-Ala was thereby added in concentrations of 5, 10 and 50 mM and the effect on the MIC of vancomycin assessed. As a first control, L-Ala was added and, as a second control, no amino acids were added. […] This was not altered when the culture media were supplemented with up to 50 mg/ml L-Ala (Table 1 and FIG. 6).
as §1

For assay [4], the system named is S. coelicolor M145. Description: LC-MS analysis of peptidoglycan precursors. As to conditions: M145 grown with 10 μg/ml vancomycin. On the procedure: (§2) In order to get more insights into the synthesis of vancomycin-sensitive (i.e., wild-type) or the alternate vancomycin-resistant peptidoglycan, the pool of peptidoglycan precursors was analyzed by Liquid Chromatography coupled to Mass Spectrometry (LC-MS). When cells produce wild-type PG, only the MurNac-pentapeptide with a D-Ala-D-Ala terminus are detected, while vancomycin-resistant PG precursors have a D-Ala-D-Lac terminus. To analyze the precursors produced in S. coelicolor M145 and its mutant derivatives LAG1 (Δddl) and LAG2 (Δddl vanS::IS466A) in the presence or absence of vancomycin, the strains were grown until exponential phase, after which the cultures were harvested, washed and the precursors extracted with 5% TCA. The supernatants were desalted, concentrated and analyzed by LC-MS (see Materials and Methods section).
(§3) For the precursor isolation and identification, a modification of the method described previously by Hong and colleagues (Hong et al., 2004) was used. 10 μg vancomycin was added to the strains at the moment of inoculation. The strains were grown in NMMP (1% (w/v) Mannitol, 50 mM MgCl2) until mid-log phase (OD-0.3-0.4) and mycelia were harvested by centrifugation at 4° C. and washed in 0.9% NaCl. […] The elution was monitored at 254 nm and monitored by the sizes eluted (1193.8-1195.3).

Assay [5] deals with S. coelicolor LAG1 (ddl null mutant). The experiment in a line: LC-MS analysis of peptidoglycan precursors. The settings on record: LAG1 grown in the presence of vancomycin. On the procedure: as §2, §3

Like-named read-outs stand apart in the source and are kept apart here.

In the case of `CN[C@H](CC(C)C)C(=O)N[C@H]1C(=O)N[C@@H](CC(N)=O)C(=O)N[C@H]2C(=O)N[C@H]3C(=O)N[C@H](C(=O)N[C@H](C(=O)O)c4cc(O)cc(O)c4-c4cc3ccc4O)[C@H](O)c3ccc(c(Cl)c3)Oc3cc2cc(c3O[C@@H]2O[C@H](CO)[C@@H](O)[C@H](O)[C@H]2O[C@H]2C[C@](C)(N)[C@H](O)[C@H](C)O2)Oc2ccc(cc2Cl)[C@H]1O` [vancomycin], the MIC in assay [1] (LAG2, 0 mM D-Ala) amounted to 128 µg/mL; in assay [1] (LAG2, 5 mM D-Ala), 64 µg/mL; in assay [1] (LAG2, 10 mM D-Ala) it was 32 µg/mL; in assay [1] (LAG2, 50 mM D-Ala) it was 4 µg/mL; in assay [2] (read-out: MIC of vancomycin, M145 ΔvanX, 0 μM D-Ala) it was 32 µg/mL; in assay [2] (read-out: MIC of vancomycin, M145 ΔvanX, 10 μM D-Ala), 16 µg/mL. The MIC in assay [2] (read-out: MIC of vancomycin, M145 ΔvanX, 50 μM D-Ala) stood at 1 µg/mL; in assay [2] (read-out: MIC of vancomycin, M145 ΔvanX, 50 μg/ml D-Ala), 1 µg/mL; in assay [2] (read-out: MIC of vancomycin, M145 ΔvanX, 100 μM D-Ala), 1 µg/mL; in the assay with S. coelicolor M145 [3] (M145, read-out: MIC of vancomycin, M145, 0 mM D-Ala), 128 µg/mL; with S. coelicolor M145 [3] (M145, read-out: MIC of vancomycin, M145, 5 mM D-Ala) it was 32 µg/mL; with S. coelicolor M145 [3] (M145, read-out: MIC of vancomycin, M145, 10 mM D-Ala), 32 µg/mL. The MIC in the assay on S. coelicolor M145 [3] (M145, read-out: MIC of vancomycin, M145, 50 mM D-Ala) was 4 µg/mL. In addition, the “reduction of the MIC of vancomycin” value in the assay on S. coelicolor M145 [3] (M145, 10 mM D-Ala) is recorded as 4 fold; with S. coelicolor M145 [3] (M145, 50 mM D-Ala), 32 fold. Further, the “precursors of the vancomycin-insensitive variant (D-Ala-D-Lac)” value in the assay with S. coelicolor M145 [4] turned out to be 91.5%. For the same molecule, the “precursors containing the terminal D-Ala-D-Lac dipeptide” value in assay [5] amounted to 95.7%.
